Source: patent US20250129086A1, “COMPOUND FOR DEGRADING EGFR PROTEIN AND USE THEREOF” (TYK MEDICINES, INC., priority 2021, published 2025)

What was measured:
[1] = test system: H1975 (EGFR L858R/T790M double mutation); assay: Cell antiproliferative assay (CTG, 72 h), H1975; assay type: cell-based, human; conditions: Homo sapiens, NCI-H1975, 72 h
In short: (§1)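 Cells seeded at 1500-2500 per well, compounds added about 24 h later as a 1:4 gradient from 10,000 nM top concentration in triplicate. After 72 h, viability read by CellTiter-Glo luminescence relative to 0.1% DMSO and blank-medium controls; IC50 from curve fitting.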

EGFR = target: T1, EGFR (Homo sapiens, UniProt P00533, DEL746-750); assay: EGFR PROTAC In Cell Western assay in HCC827; assay type: cell-based; conditions: HCC827, EGFR degradation, 16 hours of incubation
T1 construct: host or cells: HCC827
T1 sequence (P00533 with tags, fused parts or gaps DEL746-750): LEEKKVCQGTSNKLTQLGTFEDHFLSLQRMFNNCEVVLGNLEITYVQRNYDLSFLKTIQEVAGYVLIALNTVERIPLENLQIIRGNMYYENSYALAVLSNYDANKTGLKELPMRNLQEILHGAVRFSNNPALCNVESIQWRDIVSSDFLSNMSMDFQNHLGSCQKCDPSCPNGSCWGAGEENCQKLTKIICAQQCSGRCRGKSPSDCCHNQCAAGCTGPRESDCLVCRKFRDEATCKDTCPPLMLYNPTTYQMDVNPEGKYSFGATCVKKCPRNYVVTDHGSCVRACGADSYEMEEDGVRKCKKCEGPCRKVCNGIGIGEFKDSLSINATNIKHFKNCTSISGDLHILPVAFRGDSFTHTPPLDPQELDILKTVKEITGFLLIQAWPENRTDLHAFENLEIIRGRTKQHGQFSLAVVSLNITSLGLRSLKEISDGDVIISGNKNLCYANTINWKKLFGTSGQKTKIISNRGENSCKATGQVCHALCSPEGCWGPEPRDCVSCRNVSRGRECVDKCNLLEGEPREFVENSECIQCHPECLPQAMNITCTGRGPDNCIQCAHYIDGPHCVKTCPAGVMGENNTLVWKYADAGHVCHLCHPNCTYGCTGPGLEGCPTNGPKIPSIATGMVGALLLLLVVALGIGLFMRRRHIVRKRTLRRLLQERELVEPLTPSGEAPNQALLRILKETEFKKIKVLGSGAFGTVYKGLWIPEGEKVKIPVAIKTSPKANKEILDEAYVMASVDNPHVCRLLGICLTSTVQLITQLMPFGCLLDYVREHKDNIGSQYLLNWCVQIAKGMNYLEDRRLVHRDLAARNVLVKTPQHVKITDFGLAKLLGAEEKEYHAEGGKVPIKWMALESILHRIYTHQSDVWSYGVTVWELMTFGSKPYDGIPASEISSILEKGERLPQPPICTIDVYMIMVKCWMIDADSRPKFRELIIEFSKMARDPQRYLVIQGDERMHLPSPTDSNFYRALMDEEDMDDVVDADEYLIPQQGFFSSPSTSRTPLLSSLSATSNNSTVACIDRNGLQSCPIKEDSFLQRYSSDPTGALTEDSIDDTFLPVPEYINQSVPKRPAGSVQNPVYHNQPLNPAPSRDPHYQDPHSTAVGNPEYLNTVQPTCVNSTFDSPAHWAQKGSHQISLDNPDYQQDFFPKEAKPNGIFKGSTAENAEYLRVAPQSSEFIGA
From the text: Test Example 2 EGFR PROTAC in Cell Western Assay
HCC827 cell culture medium was purchased from Corning. Cell line HCC827 was purchased from BeNa Culture Collection; EGF Receptor (D38B1) XP Rabbit mAb antibody and β-Actin (8H10D10) Mouse mAb antibody were from CST. IRDye 800CW, IRDye 680RD, and Intercept blocking solution (PBS) were purchased from Licor. Triton-100 was purchased from sigma, and 96-well black cell culture imaging microtiter plates were purchased from Agilent.
1) HCC827 cells were cell counted and cells were inoculated into 96-well black cell culture imaging microtiter plates at a density of 40,000 cells per well, with 100 μl per well. The plate was incubated overnight in a CO2 incubator.
2) Day 1: A gradient dilution of the compound to be tested was added to the cells of the culture plate (with a starting concentration of […], 9 concentrations, a dilution ratio of 1:3, 2 duplicate wells), with a final concentration of DMSO being 0.5%, and a blank control of DMSO without compound. The plate was placed in the cell culture incubator for a final 16 hours of incubation.
3) The culture medium was removed from the 96 wells with a pipette and the residual medium was washed with […] of PBS per well on a shaker for 5 min. After the removal of PBS, cells were quickly fixed by adding 150 μl of fresh fixation buffer (3.7% paraformaldehyde) and incubated for 20 min at room temperature.
4) The fixation buffer was removed and […] of Triton elution buffer (0.3% Triton-100) was added to wash for four times on a shaker for 5 minutes each time.
5)[…] LI-COR Odyssey blocking solution was added and the cells were incubated for 1.5 hours at room temperature with slow shaking on a shaker.
6) To block the samples, a primary antibody against EGFR and Actin were prepared using Antibody Dilution Buffer at a ratio of 1:300. The blocking solution was poured out and the diluted primary antibody was added (at a total volume of 50 μl/per well). The cell plate was covered and incubated at 4° C. overnight.
7) The cell plate was washed four times with PBS+Triton X-100 for 5 minutes each time.
8) Fluorescently labeled secondary antibodies IRDye® 680RD and IRDye® 800CW were diluted with Antibody Dilution Buffer (with a ratio of 1:600, at a total volume of 50 μl/well) and then incubated for one hour at room temperature, protected from light.
9) The cell plate was washed four times with PBS+Triton X-100 for 5 minutes each time.
After pipetting the PBS thoroughly, the plate was inverted and imaged on a Burroughs imager. A multiple exposure program was selected, IRDye 680RD Blot was chosen for the first channel, and IRDye 800CW Blot was chosen for the second channel. […] The blank group was the DMSO group, EGFR/Actin was calculated as the EGFR value of the corresponding sample wells, and the degradation rate=100-100*EGFR signal/DMSO signal. The DC50 and Dmax of the degraded EGFR proteins were calculated by fitting curves using the Prism software, 3-parameter method.

[2] = test system: HCC827 (exon 19 deletion mutation); assay: Cell antiproliferative assay (CTG, 72 h), HCC827; assay type: cell-based, human; conditions: Homo sapiens, HCC827, 72 h
In short: as §1

[3] = test system: PC-9 (EGFR exon 19 deletion); assay: Cell antiproliferative assay (CTG, 72 h), PC-9; assay type: cell-based, human; conditions: Homo sapiens, PC-9, 72 h
In short: as §1

Structure (SMILES)	IC50 ([1]; Table 2, H1975 cells) [nM]	IC50 ([1]; Table 3, H1975 cells) [nM]	Dmax (EGFR; HCC827, Table 4) [%]	DC50 (EGFR; Table 4) [µM]	IC50 ([2]; Table 2, HCC827 cells) [nM]	IC50 ([2]; Table 3, HCC827 cells) [nM]	IC50 ([3]; Table 2, PC-9 cells) [nM]	IC50 ([3]; Table 3, PC-9 cells) [nM]	Dmax (EGFR; HCC827, Table 5) [%]	DC50 (EGFR; Table 5) [µM]
O=C1CCC(Nc2ccc(C3CCN(CC(=O)N4CCN(c5ccc(-c6cc(F)c7c(c6)C(=O)N(C(C(=O)Nc6nccs6)c6ncn8c6CCC8)C7)cc5)CC4)CC3)cc2)C(=O)N1 (stereo not drawn) [Comparative Compound 1, reference compound]	100 to 1000	548	< 50	≥ 1	≥ 1000	> 5000	≥ 1000	> 5000		
COc1cc(N2CCC(N3CCN(C(=O)C4CCN(CC5CCN(c6ccc7c(c6)C(=O)N(C6CCC(=O)NC6=O)C7=O)CC5)CC4)CC3)CC2)ccc1Nc1ncc(Cl)c(Nc2ccccc2P(C)(C)=O)n1 (stereo not drawn) [Comparative Compound 2, reference compound]	100 to 1000	186	50 to 70	0.01 to 0.1	100 to 1000	221	≥ 1000	1940	64.7	0.0223
COc1cc(N2CCC(N3CCN(C(=O)CCCCN4CCN(c5ccc6c(c5)C(=O)N(C5CCC(=O)NC5=O)C6=O)CC4)CC3)CC2)ccc1Nc1ncc(Cl)c(Nc2ccccc2N(C)S(C)(=O)=O)n1 (stereo not drawn) [Comparative Compound 3, reference compound]	100 to 1000	386	50 to 70	0.01 to 0.1	10 to 100	72.5	100 to 1000	682	56.4	0.0152
COc1cc(N2CCN(C(=O)CN3CCC(c4ccc(NC5CCC(=O)NC5=O)cc4)CC3)CC2)ccc1Nc1ncc(Cl)c(Nc2ccccc2C(C)=O)n1 (stereo not drawn) [Compound T-12]	10 to 100	34.3	70 to 100	0.01 to 0.1	100 to 1000	110	100 to 1000	324	70.5	0.0156
COc1cc(N2CCN(C(=O)CN3CCC(c4ccc(NC5CCC(=O)NC5=O)cc4)CC3)CC2)ccc1Nc1ncc(Cl)c(Nc2ccccc2P(C)(C)=O)n1 (stereo not drawn) [Compound T-13]	10 to 100		70 to 100	≤ 0.01	100 to 1000		100 to 1000			
COc1cc(N2CCN(C(=O)CN3CCC(c4ccc(NC5CCC(=O)NC5=O)cc4)CC3)CC2)ccc1Nc1ncc(C(F)(F)F)c(Nc2ccccc2C(C)=O)n1 (stereo not drawn) [Compound T-47]	10 to 100		50 to 70	0.01 to 0.1	10 to 100		100 to 1000			
COc1cc(N2CCN(C(=O)CN3CCC(c4ccc(NC5CCC(=O)NC5=O)cc4)CC3)CC2)c(C)cc1Nc1ncc(Cl)c(Nc2ccccc2C(C)=O)n1 (stereo not drawn) [Compound T-57]	10 to 100		50 to 70	0.01 to 0.1	100 to 1000		100 to 1000			
COc1cc(N2CCN(C(=O)CN3CCC(c4ccc(NC5CCC(=O)NC5=O)cc4)CC3)CC2C)ccc1Nc1ncc(Cl)c(Nc2ccccc2C(C)=O)n1 (stereo not drawn) [Compound T-60]	10 to 100		50 to 70	0.01 to 0.1	100 to 1000		100 to 1000			
COc1cc(N2CCN(C(=O)CN3CCC(c4ccc(NC5CCC(=O)NC5=O)cc4)CC3)C(C)C2)ccc1Nc1ncc(Cl)c(Nc2ccccc2C(C)=O)n1 (stereo not drawn) [Compound T-63]	10 to 100		50 to 70	0.1 to 1	100 to 1000		100 to 1000			
COc1cc(N2CC3(CN(C(=O)CN4CCC(c5ccc(NC6CCC(=O)NC6=O)cc5)CC4)C3)C2)ccc1Nc1ncc(Cl)c(Nc2ccccc2C(C)=O)n1 (stereo not drawn) [Compound T-66]	10 to 100		< 50	0.01 to 0.1	100 to 1000		≥ 1000			
COc1cc(N2CCN(C(=O)CN3CCN(c4ccc(NC5CCC(=O)NC5=O)cc4)CC3)CC2)ccc1Nc1ncc(Br)c(Nc2ccccc2C(C)=O)n1 (stereo not drawn) [Compound T-84]	10 to 100		70 to 100	0.01 to 0.1	100 to 1000		100 to 1000			
COc1cc(N2CC3CC(C2)N3C(=O)CN2CCC(c3ccc(NC4CCC(=O)NC4=O)cc3)CC2)ccc1Nc1ncc(Cl)c(Nc2ccccc2C(C)=O)n1 (stereo not drawn) [Compound T-125]	100 to 1000		< 50	0.01 to 0.1	100 to 1000		≥ 1000			

The next lines start with the values.

IC50 ([1]; Table 2, H1975 cells) [nM]	IC50 ([1]; Table 3, H1975 cells) [nM]	Dmax (EGFR; HCC827, Table 4) [%]	DC50 (EGFR; Table 4) [µM]	IC50 ([2]; Table 2, HCC827 cells) [nM]	IC50 ([2]; Table 3, HCC827 cells) [nM]	IC50 ([3]; Table 2, PC-9 cells) [nM]	IC50 ([3]; Table 3, PC-9 cells) [nM]	Dmax (EGFR; HCC827, Table 5) [%]	DC50 (EGFR; Table 5) [µM]	Structure (SMILES)
10 to 100		50 to 70	0.01 to 0.1	10 to 100		100 to 1000				C=CC(=O)Nc1cc(Nc2ncc(Cl)c(Nc3ccccc3C(C)=O)n2)c(OC)cc1N1CCN(C(=O)CN2CCC(c3ccc(NC4CCC(=O)NC4=O)cc3)CC2)CC1 (stereo not drawn) [Compound T-91]
100 to 1000		50 to 70	0.01 to 0.1	100 to 1000		100 to 1000				COc1cc(N2CCN(C(=O)CN3CCN(c4ccc(NC5CCC(=O)NC5=O)nc4)CC3)CC2)ccc1Nc1ncc(Cl)c(Nc2ccccc2C(C)=O)n1 (stereo not drawn) [Compound T-101]
100 to 1000		50 to 70	0.1 to 1	100 to 1000		≥ 1000				COc1cc(N2CCC(N3CCN(C(=O)CN4CCC(c5ccc(NC6CCC(=O)NC6=O)cc5)CC4)CC3)CC2)ccc1Nc1ncc(Cl)c(Nc2ccccc2C(C)=O)n1 (stereo not drawn) [Compound T-121]
		< 50	0.1 to 1							COc1cc(C(=O)N2CCC(c3ccc(NC4CCC(=O)NC4=O)cc3)CC2)ccc1Nc1ncc(Cl)c(Nc2ccccc2C(C)=O)n1 (stereo not drawn) [Compound T-130]
		< 50	0.01 to 0.1							COc1cc(N2CCN(C(=O)CN3CCC(c4ccc(NC5CCC(=O)NC5=O)cc4)CC3)CC2)ccc1Nc1ncc(C(F)(F)F)c(Nc2ccc(F)cc2F)n1 (stereo not drawn) [Compound T-131]
10 to 100		50 to 70	0.1 to 1	100 to 1000		100 to 1000				COc1cc(N2CCC(N(C)C(=O)CN3CCC(c4ccc(NC5CCC(=O)NC5=O)cc4)CC3)CC2)ccc1Nc1ncc(C(F)(F)F)c(Nc2ccccc2C(C)=O)n1 (stereo not drawn) [Compound T-163]
100 to 1000		< 50	≥ 1	100 to 1000		100 to 1000				COc1cc(N2CC(NC(=O)CN3CCC(c4ccc(NC5CCC(=O)NC5=O)cc4)CC3)C2)ccc1Nc1ncc(Cl)c(Nc2ccccc2C(C)=O)n1 (stereo not drawn) [Compound T-169]
100 to 1000		< 50	0.01 to 0.1	10 to 100		≥ 1000				COc1cc(N2CC[C@H](N(C)C(=O)CN3CCC(c4ccc(NC5CCC(=O)NC5=O)cc4)CC3)C2)ccc1Nc1ncc(Cl)c(Nc2ccccc2C(C)=O)n1 (stereo partly drawn) [Compound T-172]
10 to 100		50 to 70	0.01 to 0.1	100 to 1000		100 to 1000				COc1cc(N2CCN(CCN3CCC(c4ccc(NC5CCC(=O)NC5=O)cc4)CC3)CC2)ccc1Nc1ncc(Cl)c(Nc2ccccc2C(C)=O)n1 (stereo not drawn) [Compound T-182]
10 to 100		< 50	0.1 to 1							COc1cc(N2CCC(N(C)C(=O)C3CCN(CC4CCN(c5ccc6c(c5)C(=O)N(C5CCC(=O)NC5=O)C6=O)CC4)CC3)CC2)ccc1Nc1ncc(Cl)c(Nc2ccccc2C(C)=O)n1 (stereo not drawn) [Compound T-228]
